Patent publication US5504097A, “N-hydroxyureas as 5-lipoxygenase inhibitors and inhibitors of oxidative modification of low density lipoprotein” (American Home Products Corporation, priority 1995, dated 1996)
Where a name gives a salt, the structure may show the parent alone.

Legend:
5-Lipoxygenase = molecular target: T1, 5-Lipoxygenase (Homo sapiens, UniProt P09917); test: Inhibition of 5-Lipoxygenase in Human Whole Blood (LTB4, calcium ionophore A23187); assay type: cell-based
T1 construct: from tissue; host or cells: whole blood of male human donors (endogenous enzyme of the leukocytes)
T1 sequence (P09917 1-674): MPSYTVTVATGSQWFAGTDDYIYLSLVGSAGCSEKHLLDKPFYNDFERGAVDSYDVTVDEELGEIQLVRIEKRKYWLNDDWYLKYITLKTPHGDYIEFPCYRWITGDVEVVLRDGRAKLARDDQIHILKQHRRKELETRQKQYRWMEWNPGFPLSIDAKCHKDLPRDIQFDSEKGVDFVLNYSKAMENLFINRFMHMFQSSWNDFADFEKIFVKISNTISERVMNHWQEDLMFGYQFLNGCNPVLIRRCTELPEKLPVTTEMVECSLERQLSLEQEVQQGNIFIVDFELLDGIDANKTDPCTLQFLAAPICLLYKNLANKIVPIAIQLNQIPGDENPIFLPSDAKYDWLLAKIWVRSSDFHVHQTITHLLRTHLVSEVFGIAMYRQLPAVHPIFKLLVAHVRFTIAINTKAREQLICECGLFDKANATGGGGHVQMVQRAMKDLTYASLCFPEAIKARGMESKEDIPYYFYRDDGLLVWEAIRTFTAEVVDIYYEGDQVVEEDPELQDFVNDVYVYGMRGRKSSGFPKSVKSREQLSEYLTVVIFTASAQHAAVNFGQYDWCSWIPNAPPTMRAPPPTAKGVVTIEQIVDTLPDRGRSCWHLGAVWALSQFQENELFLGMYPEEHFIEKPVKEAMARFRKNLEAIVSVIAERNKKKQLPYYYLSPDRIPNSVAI
Description: 1. Inhibition of 5-Lipoxygenase in Human Whole Blood
Blood is obtained in 50-100 ml quantities from male donors. White blood cell counts and differentials are made. Two ml of blood are placed in a 15 ml polypropylene test tube. Test compounds are solubilized in dimethylsulfoxide and diluted in 1:10 in 10% bovine serum albumin in phosphate buffered saline, pH 7.4 resulting in a final dimethylsulfoxide concentration of 0.1% in the blood. Then, solutions of test compounds are added to the blood in a shaking water bath at 37° C. for 10 minutes prior to the addition of 30 μM calcium ionophore (A23187, Sigma). After ionophore administration, whole blood samples are mixed and incubated for 20 minutes at 37° C. in a shaking water bath. Incubation is terminated by placing samples in an ice bath and immediately adding ethylene glycol-bis-(β-aminoethyl ether)-N, N,N',N'-tetraacetic acid (10 mM). Samples are mixed and centrifuged at 1200× g for 15 minutes at 4° C. Preparation of samples for evaluation by RIA or ELISA is carried out by the following protocol. Plasma is removed from sample tubes, placed in 15 ml polypropylene test tubes containing 8 ml methanol, and then vortexed to precipitate protein. Samples are stored at -70° C. overnight. The next day, samples are centrifuged at 200× g for 15 minutes at 4° C. to pellet the precipitate. Samples are dried in a Savant SpeedVac Concentrator, Model SVC 200H, reconstituted to original volume with ice cold RIA or ELISA buffer, and stored at -70° C. until assayed. The assay for eicosanoids (LTB4, T×B2, and PGE2) is performed as described by the manufacturer of the ^3 H!-RIA kit or ELISA kit (LTB4 -Amersham, T×B2 and PGE2 -Caymen Chemical).
The total eicosanoid level in 2 ml of blood is calculated and reported as ng/10^6 neutrophils. Significance is determined by a one-way analysis of variance with least significant difference (LSD) comparisons to control (p≤0.05) and IC50 's (μM) are determined by regression analysis (Finney, 1978). Drug effects are expressed as percent change from control values.

[1] = test system: LT-dependent bronchoconstriction; test: Inhibition of Bronchoconstriction in Guinea Pigs Induced by Exogenously Administered Antigen (ovalbumin); assay type: in vivo, Male guinea pigs; details: Cavia porcellus, iv, 5 min; 10 mg/kg
Description: 4. Inhibition of Brochoconstriction in Guinea Pigs Induced by Exogenously Administered Antigen
Male guinea pigs (Charles River, Wilmington, Mass.) were sensitized 3-4 weeks prior to antigen challenge by administration of 2 i.m. injections of ovalbumin, 1 into each hind limb (35 mg total). Sensitized animals (500-600 g) were fasted overnight prior to experimentation. Conscious animals were then dosed p.o. with drug or vehicle alone (0.5% Tween 80 in H2 O) at the indicated times prior to antigen challenge, or anesthetized animals were dosed i.v. with drug or vehicle alone (DMSO) 5 min prior to antigen challenge. Animals were anesthetized by urethane (2.8 g/kg i.p.). A carotid artery and jugular vein were cannulated to allow for the monitoring of blood pressure and the administration of drugs, respectively. The trachea was then cannulated and connected to a Harvard Apparatus rodent ventilator (S. Natick, Mass). Spontaneous respiration was abolished by the administration of succinylcholine (2.5 mg/kg i.v.). The animals were then ventilated with room air at a rate of 65 breaths per min. Airway inflation pressure was measured using a Statham pressure transducer (Gould Instruments, Cleveland, Ohio) connected to the tracheal cannula via a side-arm and recorded on a Grass Instruments recorder (Quincy, Mass). The tidal volume (approximately 10 cc/kg) was adjusted to give a baseline inflation pressure of 8-10 cm H2 O at end inspiration. Animals were then allowed 20 min to stabilize.
Following the stabilization period, animals were given i.v. injections of pyrilamine (5 mg/kg), propranolol (0.1 mg/kg) and indomethacin (10 mg/kg) at 15, 10 and 5 min, respectively, prior to antigen challenge. This pretreatment results in an LT-dependent bronchoconstriction following antigen challenge, which was accomplished by i.v. administration of ovalbumin (10 mg/kg). Only one bronchoconstriction per animal was induced. End-inspiratory inflation pressure (in cm H2 O over baseline) was measured at 5 min post-antigen challenge. A mean value and standard error for the % inhibition of control bronchoconstriction in each drug-treated group was then calculated.

Lipoxygenase = test: Ex-Vivo Measurement of Lipoxygenase Inhibition in Orally Dosed Rats (LTB4 in A23187-stimulated blood); set-up: species or system Male Sprague Dawley rats; details: 10 mg/kg, p.o.; pretreatment period 6 hr
Description: 2. Ex-Vivo Measurement of Lipoxygenase Inhibition in Orally Dosed Rats
After an interval of 3 or 6 hours, the rats were anesthetized with metofane (n=4/group) and blood collected in heparinized tubes. White blood cell counts and differentials were made. One ml of blood from each animal was placed in a 5 ml plastic tube in a shaker bath at 37° C. A23187 at a final concentration of 10 μM was added to the blood and the blood vortexed and incubated for 15 min at 37° C. with gentle shaking. Incubation was terminated by vortexing sample and centrifuging immediately at 1200× G for 15 min at 4° C. The plasma was transferred to 15 ml plastic tubes each containing 8 ml of methanol to precipitate protein followed by vortexing. The samples were stored at -70° C. overnight and the next day the samples were centrifuged at 800× G for 15 min to pellet the precipitate. The samples were dried in a Savant SpeedVac Concentrator Model SVC 200H and reconstituted to the original volume with cold RIA or ELISA buffer. The reconstituted samples were stored at -70° C. until assayed. The assay for LTB4 was performed according to the directions of the ^3 H!RIA kit or ELISA kit (Seragen). The total metabolite level in 1 ml of blood is calculated and reported as ng/10^6 neutrophils. Significance is determined by a one-way analysis of variance with LSD comparisons to control (p≤0.05).

Row | Compound | inhibition at 1 µM (5-Lipoxygenase) | inhibition at 10 µM (5-Lipoxygenase; 10 μM) | inhibition in vivo at 10 mg/kg [1] | further results
1 | Cc1oc(-c2ccccc2)nc1COc1ccc(C(C)N(O)C(N)=O)cc1 (stereo not shown) [Example 8, 1-Hydroxy-1-1- -4(5-methyl-2-phenyl-oxazol-4-ylmethoxy)-phenyl!-ethyl!-urea] |  | 57% |  | 
2 | NC(=O)N(O)Cc1ccc(OCc2csc(-c3ccc(C(F)(F)F)cc3)n2)cc1 [Example 12, 1-Hydroxy-1-4-2-(4-trifluoromethyl-phenyl)-thiazol-4-yl-methoxy!-benzyl!urea] | 56% |  | 30% | 
3 | NC(=S)N(O)Cc1ccc(OCc2csc(-c3ccc(Cl)cc3)n2)cc1 [Example 15, 1-Hydroxy-1-4-2-(4-chloro-phenyl)-thiazol-4-ylmethoxy!-benzyl!-thiourea] | 57% |  | 21% | 
4 | CCCCCCNC(=O)N(O)Cc1ccc(OCc2csc(-c3ccc(Cl)cc3)n2)cc1 [Example 16, 1-4-2-(4-chloro-phenyl)-thiazol-4-ylmethoxy!-benzyl!-3-hexyl-1-hydroxy-urea] |  | 36% |  | 
5 | COc1ccc(-c2nc(COc3ccc(CN(O)C(N)=O)cc3)cs2)cc1 [Example 17, 1-Hydroxy-1-4-2-(4-methoxy-phenyl)-thiazol-4-ylmethoxy!-benzyl!-urea] | 56% |  | 50% | % Inhibition of LTB4 (Lipoxygenase): 69%
6 | CC(C)=NNC(=O)N(O)Cc1ccc(OCc2nc(-c3ccc(C(F)(F)F)cc3)oc2C)cc1 [Example 20, 1-Isopropylidine-4-hydroxy-4-4-5-methyl-2-(4-trifluoromethylphenyl)oxazol-4-ylmethoxy!-benzyl!-semicarbazone] |  | 78% |  | 
7 | NNC(=O)N(O)Cc1ccc(OCc2csc(-c3ccccc3)n2)cc1 [Example 21, 4-Hydroxy-4-4-(2-phenyl-thiazol-4-ylmethoxy)-benzyl!-semicarbazide] |  | 94% |  | 
8 | NNC(=O)N(O)Cc1ccc(OCc2csc(-c3ccccc3)n2)cc1 [Example 22, 4-Hydroxy-4-4-(2-phenyl-thiazol-4-ylmethoxy)-benzyl!-semicarbazide hydrochloride] |  |  |  | % Inhibition of LTB4 (5-Lipoxygenase; 10 μM, hydrochloride): 80%

The next lines start with results.

Row | inhibition at 1 µM (5-Lipoxygenase) | inhibition at 10 µM (5-Lipoxygenase; 10 μM) | Compound | inhibition in vivo at 10 mg/kg [1] | further results
9 | 74% |  | Cc1oc(-c2ccc(OCC(F)(F)F)cc2)nc1COc1ccc(CN(O)C(N)=O)cc1 [Example 7, 1-Hydroxy-1-4-5-methyl-2-(4-trifluoroethoxy-phenyl)-oxazol-4-ylmethoxy!-benzyl!-urea] | 24% | 
10 | 32% |  | NC(=O)N(O)Cc1ccc(OCc2coc(-c3ccc(C(F)(F)F)cc3)n2)cc1 [Example 11, 1-Hydroxy-1-4-2-(4-trifluoromethyl-phenyl)-oxazol-4-ylmethoxy!-benzyl!-urea] |  | % Inhibition of LTB4 (Lipoxygenase): 68%
11 | 38% |  | O=C(Nc1ccc(F)cc1)N(O)Cc1ccc(OCc2csc(-c3ccc(C(F)(F)F)cc3)n2)cc1 [Example 13, 3-(4-Fluoro-phenyl)-1-hydroxy-1-4-2-(4-trifluoromethyl-phenyl)-thiazol-4-ylmethoxy!-benzyl!-urea] |  | 
12 |  | 86% | Cc1oc(-c2ccccc2)nc1COc1ccc(C(O)CN(O)C(N)=O)cc1 (stereo not shown) [Example 18, 1-Hydroxy-1-2-hydroxy-2-4-(5-methyl-2-phenyl-oxazol-4-ylmethoxy)-phenyl!-ethyl!-urea] |  | 
13 |  | 50% | Cc1oc(-c2ccc(C(F)(F)F)cc2)nc1COc1ccc(CN(O)C(=O)NN)cc1 [Example 19, 4-Hydroxy-4-4-5-methyl-2-(4-trifluoromethyl-phenyl)-oxazol-4-ylmethoxy!-benzyl!-semicarbazide] |  | 
